Laboratory results reported in ChEMBL document CHEMBL2021850, “Steroidal C-21 heteroaryl thioethers. Part 3: pregn-4-eno-[3,2-c]pyrazole fused A ring modified steroids as selective glucocorticoid receptor modulators (dissociated steroids)” (Bioorg Med Chem Lett, 2012).

Assays:
Glucocorticoid receptor [1] = biological target: T1, Glucocorticoid receptor (Homo sapiens, UniProt P04150); test: Transactivation activity at human glucocorticoid receptor in cells co-expressing GRE by luciferase reporter gene assay; conditions: read-out: IC50 (the source's name)
T1 sequence (P04150 whole entry): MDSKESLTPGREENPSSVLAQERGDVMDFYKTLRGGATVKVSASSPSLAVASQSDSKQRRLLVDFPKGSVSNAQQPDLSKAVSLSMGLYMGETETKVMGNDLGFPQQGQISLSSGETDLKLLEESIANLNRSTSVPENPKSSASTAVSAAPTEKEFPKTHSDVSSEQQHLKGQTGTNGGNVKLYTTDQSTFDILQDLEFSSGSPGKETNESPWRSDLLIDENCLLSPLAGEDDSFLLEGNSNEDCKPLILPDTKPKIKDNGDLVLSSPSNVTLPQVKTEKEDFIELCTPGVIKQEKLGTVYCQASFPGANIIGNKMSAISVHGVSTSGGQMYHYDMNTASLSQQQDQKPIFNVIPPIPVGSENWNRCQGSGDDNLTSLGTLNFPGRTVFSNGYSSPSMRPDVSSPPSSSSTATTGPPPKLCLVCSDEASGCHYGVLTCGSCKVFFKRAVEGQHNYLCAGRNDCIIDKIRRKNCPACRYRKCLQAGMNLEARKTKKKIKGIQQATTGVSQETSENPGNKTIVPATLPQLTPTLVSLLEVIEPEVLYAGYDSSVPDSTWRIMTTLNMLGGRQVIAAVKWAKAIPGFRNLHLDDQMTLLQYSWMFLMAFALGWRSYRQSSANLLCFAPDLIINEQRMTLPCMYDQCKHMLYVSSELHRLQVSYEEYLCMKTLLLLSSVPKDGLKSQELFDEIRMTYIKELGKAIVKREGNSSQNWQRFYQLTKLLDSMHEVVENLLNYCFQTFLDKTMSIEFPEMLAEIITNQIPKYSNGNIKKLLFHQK

Glucocorticoid receptor [2] = biological target: T1, Glucocorticoid receptor; test: Transactivation activity at human glucocorticoid receptor in cells co-expressing GRE by luciferase reporter gene assay relative to control; conditions: read-out: Efficacy
Glucocorticoid receptor [3] = biological target: T2, Glucocorticoid receptor (Rattus norvegicus, UniProt P06536); test: Transactivation activity at glucocorticoid receptor in rat H4II-E cells assessed as induction of tyrosine aminotransferase; format: ADME, cell-based
T2 sequence (P06536 whole entry): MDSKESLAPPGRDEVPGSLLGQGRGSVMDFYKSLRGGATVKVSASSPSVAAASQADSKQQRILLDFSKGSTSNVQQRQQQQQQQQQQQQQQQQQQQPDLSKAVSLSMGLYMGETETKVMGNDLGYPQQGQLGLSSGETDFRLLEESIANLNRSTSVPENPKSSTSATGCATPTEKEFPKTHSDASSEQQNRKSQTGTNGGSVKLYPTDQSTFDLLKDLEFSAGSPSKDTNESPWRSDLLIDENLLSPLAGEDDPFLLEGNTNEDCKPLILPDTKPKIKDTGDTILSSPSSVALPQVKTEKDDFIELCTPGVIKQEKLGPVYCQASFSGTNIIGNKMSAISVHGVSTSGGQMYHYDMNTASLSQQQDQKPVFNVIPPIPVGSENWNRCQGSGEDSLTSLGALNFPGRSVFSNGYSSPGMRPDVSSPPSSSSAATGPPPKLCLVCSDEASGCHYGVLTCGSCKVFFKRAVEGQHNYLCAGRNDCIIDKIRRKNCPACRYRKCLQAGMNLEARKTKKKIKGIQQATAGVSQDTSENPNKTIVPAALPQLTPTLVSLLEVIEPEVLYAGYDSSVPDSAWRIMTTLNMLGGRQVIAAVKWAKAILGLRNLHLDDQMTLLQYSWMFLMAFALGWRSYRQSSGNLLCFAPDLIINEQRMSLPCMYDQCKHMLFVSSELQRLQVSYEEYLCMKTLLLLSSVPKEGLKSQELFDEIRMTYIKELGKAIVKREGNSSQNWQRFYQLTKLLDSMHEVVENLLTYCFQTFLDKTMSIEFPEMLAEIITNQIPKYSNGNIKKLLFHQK

Glucocorticoid receptor [4] = biological target: T1, Glucocorticoid receptor; test: Transactivation activity at glucocorticoid receptor in human HepG2 cells assessed as induction of tyrosine aminotransferase; format: ADME, cell-based
Glucocorticoid receptor [5] = biological target: T1, Glucocorticoid receptor; test: Transrepression activity at glucocorticoid receptor in human H292 cells assessed as inhibition of TNF-induced IL8 production; format: cell-based
Rattus norvegicus [6] = test: Antiinflammatory activity in Brown Norway rat lung inflammation model assessed as total cell inhibition at 2 mg/kg, it; format: functional; conditions: route endotracheal
[7] = AUC in po dosed rat; format: ADME, organism-based; conditions: plasma
Rattus norvegicus [8] = test: Antiinflammatory activity in Brown Norway rat lung inflammation model assessed as total cell inhibition at 10 mg/kg, po for 3 days; format: functional; conditions: 72 h
[9] = Cmax in po dosed rat; format: ADME, organism-based; set-up: route oral; conditions: in vivo
Rattus norvegicus [10] = test: Transactivation activity in Brown Norway rat lung inflammation model assessed as thymolysis measuring decrease in thymus weight at 10 mg/kg, po for 3 days; format: organism-based; set-up: dose 10 mg/kg, route oral; scale not given: the % may be the effect or the level left; conditions: in vivo, 72 h
Glucocorticoid receptor [11] = biological target: T1, Glucocorticoid receptor; test: Inhibition of human glucocorticoid receptor

| Emax (Glucocorticoid receptor [2]) [%] | Activity (Rattus norvegicus [10]) [%] | IC50 (Glucocorticoid receptor [11]) [µM] | SMILES | EC50 (Glucocorticoid receptor [1]) [µM] | IC50 (Glucocorticoid receptor [3]) [µM] | IC50 (Glucocorticoid receptor [4]) [µM] | IC50 (Glucocorticoid receptor [5]) [µM] | inhibition in vivo at 2 mg/kg (Rattus norvegicus [6]) [%] | AUC [7] [µg·h/mL] | inhibition in vivo at 10 mg/kg (Rattus norvegicus [8]) [%] | Cmax [9] [µg/mL] |
| --- | --- | --- | --- | --- | --- | --- | --- | --- | --- | --- | --- |
| 86 | – | – | C=CCn1c(SCC(=O)[C@@]2(O)CC[C@H]3[C@@H]4CCC5=Cc6c(cnn6-c6ccccc6)C[C@]5(C)[C@H]4[C@@H](O)C[C@@]32C)nc2ccccc21 | 0.0286 | 0.258 | 0.278 | 0.00343 | – | – | – | – |
| – | 53 | – | C[C@]12C=CC(=O)C=C1CC[C@@H]1[C@@H]2[C@@H](O)C[C@@]2(C)[C@H]1CC[C@]2(O)C(=O)CO [PREDNISOLONE] | – | – | – | – | – | 1.25 | 56 | 0.682 |
| 1 | 0 | – | C[C@]12CCC(=O)C=C1CC[C@@H]1[C@@H]2[C@@H](O)C[C@@]2(C)[C@H]1CC[C@]2(O)C(=O)CSc1cnc2ccccc2n1 | – | – | – | 0.0221 | – | 0.274 | 39 | 0.255 |
| 57 | – | 0.0043 | Cc1nc(SCC(=O)[C@@]2(O)CC[C@H]3[C@@H]4CCC5=CC(=O)CC[C@]5(C)[C@H]4[C@@H](O)C[C@@]32C)sc1C | – | – | – | 0.0219 | – | – | – | – |
| 35 | – | 0.0039 | C[C@]12CCC(=O)C=C1CC[C@@H]1[C@@H]2[C@@H](O)C[C@@]2(C)[C@H]1CC[C@]2(O)C(=O)CSc1nc2ccccc2o1 | – | – | – | 0.0267 | – | – | – | – |
| 14 | – | 0.0149 | C[C@]12CCC(=O)C=C1CC[C@@H]1[C@@H]2[C@@H](O)C[C@@]2(C)[C@H]1CC[C@]2(O)C(=O)CSc1ccccn1 | – | – | – | 0.0238 | – | – | – | – |
| 16 | – | 0.0047 | C[C@]12CCC(=O)C=C1CC[C@@H]1[C@@H]2[C@@H](O)C[C@@]2(C)[C@H]1CC[C@]2(O)C(=O)CSc1nc2ncccc2s1 | – | – | – | 0.0591 | – | – | – | – |
| 0 | – | 0.0066 | C[C@]12CCC(=O)C=C1CC[C@@H]1[C@@H]2[C@@H](O)C[C@@]2(C)[C@H]1CC[C@]2(O)C(=O)CSc1ccc2ccccc2n1 | – | – | – | 0.0893 | – | – | – | – |
| 8 | 5 | 0.0089 | Cn1c(SCC(=O)[C@@]2(O)CC[C@@]3(C)[C@@H]4CCC5=CC(=O)CC[C@]5(C)[C@H]4[C@@H](O)C[C@@]32C)nc2ccccc21 | – | – | – | 0.0561 | – | 0.15 | 39 | 0.115 |

Further lines, the molecule ahead of its results:

| SMILES | Emax (Glucocorticoid receptor [2]) [%] | Activity (Rattus norvegicus [10]) [%] | IC50 (Glucocorticoid receptor [11]) [µM] | EC50 (Glucocorticoid receptor [1]) [µM] | IC50 (Glucocorticoid receptor [3]) [µM] | IC50 (Glucocorticoid receptor [4]) [µM] | IC50 (Glucocorticoid receptor [5]) [µM] | inhibition in vivo at 2 mg/kg (Rattus norvegicus [6]) [%] | AUC [7] [µg·h/mL] | inhibition in vivo at 10 mg/kg (Rattus norvegicus [8]) [%] | Cmax [9] [µg/mL] |
| --- | --- | --- | --- | --- | --- | --- | --- | --- | --- | --- | --- |
| C[C@]12Cc3cnn(-c4ccccc4)c3C=C1CC[C@@H]1[C@@H]2[C@@H](O)C[C@@]2(C)[C@H]1CC[C@]2(O)C(=O)CSc1ccc2ccccc2n1 | 69 | – | – | 0.101 | 0.0823 | 0.0601 | 0.0148 | – | – | – | – |
| Cn1c(SCC(=O)[C@@]2(O)CC[C@H]3[C@@H]4CCC5=Cc6c(cnn6-c6ccccc6)C[C@]5(C)[C@H]4[C@@H](O)C[C@@]32C)nc2ccccc21 | 64 | – | – | 0.0191 | 0.078 | 0.0667 | 0.0047 | – | – | – | – |
| C[C@]12Cc3cnn(-c4ccc(F)cc4)c3C=C1CC[C@@H]1[C@@H]2[C@@H](O)C[C@@]2(C)[C@H]1CC[C@]2(O)C(=O)CSc1cnc2ccccc2n1 | – | – | – | – | – | – | 0.00199 | 9 | – | – | – |
| C[C@]12Cc3cnn(-c4ccccc4)c3C=C1CC[C@@H]1[C@@H]2[C@@H](O)C[C@@]2(C)[C@H]1CC[C@]2(O)C(=O)CSc1ccccn1 | 102 | – | – | 0.0084 | 0.225 | 0.596 | 0.0015 | – | – | – | – |
| C[C@]12Cc3cnn(-c4ccc(F)cc4)c3C=C1CC[C@@H]1[C@@H]2[C@@H](O)C[C@@]2(C)[C@H]1CC[C@]2(O)C(=O)CSc1nc2ncccc2o1 | – | 70 | – | – | 0.0133 | 0.0386 | 0.00032 | – | 1.63 | 48 | 0.348 |
| C[C@]12Cc3cnn(-c4ccccc4)c3C=C1CC[C@@H]1[C@@H]2[C@@H](O)C[C@@]2(C)[C@H]1CC[C@]2(O)C(=O)CSc1nc2ncccc2o1 | 83 | 67 | – | – | 0.0338 | 0.0377 | 0.00089 | – | 2.03 | 62 | 0.467 |
| Cc1nc(SCC(=O)[C@@]2(O)CC[C@H]3[C@@H]4CCC5=Cc6c(cnn6C6CCCCC6)C[C@]5(C)[C@H]4[C@@H](O)C[C@@]32C)sc1C | 88 | – | – | 0.0318 | 0.135 | 0.168 | 0.0028 | – | – | – | – |
| C[C@]12Cc3cnn(-c4ccccc4)c3C=C1CC[C@@H]1[C@@H]2[C@@H](O)C[C@@]2(C)[C@H]1CC[C@]2(O)C(=O)CSc1cnc2ccccc2n1 | 68 | – | – | – | 0.113 | 0.226 | 0.00536 | 28 | 0.064 | – | 0.021 |
